Reference: paper PMC11024869, “The activity of antimicrobial peptoids against multidrug-resistant ocular pathogens” (Contact lens & anterior eye : the journal of the British …, 2024)
Values after ≈ are worked out from the molar mass of the structure shown. Values joined by “and” are separate entries in the source; they are usually repeats but may differ in a detail not shown here. Equal values may be shown once. Read-outs that look alike come from different tables or passages of the source. Non-standard residues stand in square brackets, D forms with d. Residues, ends and D or L forms follow the SMILES beside them. Nspe(4-Br) = C[C@H](NCC(=O)O)c1ccc(Br)cc1; Nspe = C[C@H](NCC(=O)O)c1ccccc1; Nlys = NCCCCNCC(=O)O

What was measured:
Assay type in all cases: cell-based
[1] = system: Streptococcus pneumoniae SP07
Description: (§3) The S. pneumoniae strains used were SP04, SP06 and SP07 [46] and Streptococcus gallolyticus SV06 (all isolated from eyes of contact lens wearers during adverse events); P. aeruginosa PAO1 (which was originally isolated from a wound, and is an invasive strain containing the gene exoS) as well as isolates from microbial keratitis, PA 235 (invasive strain containing exoS), PA216 (a cytotoxic strain containing exoU), PA219 (cytotoxic strain containing exoU), PA 233 (cytotoxic strain containing exoU), with various susceptibilities to antibiotics were also used [14]. C. albicans ATCC 10231, a yeast, isolated from case of a human bronchomycosis, was also evaluated.
(§4) The peptoids’ minimum inhibitory and bactericidal concentrations (MIC and MBC) were determined using micro broth dilution methods as previously described with slight modifications, [26, 39, 49, 50], and without using acetic acid and bovine serum albumin [39]. Briefly, bacteria or yeast were suspended in Muller Hinton broth (MHB, Oxoid, Thermo Fisher Scientific, Thebarton, SA, Australia) at 0.1 OD660nm, which was equivalent to 1x10^8 colony forming units (CFU) mL^−1. This suspension was further diluted to achieve 5x10^6 CFU mL^−1. The peptoids were diluted in MHB from 250 to 0.24 μg mL^−1 in 96-well polystyrene microplates (COSTAR, Corning Incorporated, New York, NY, USA) [39]. […] This was followed by addition of 100 μL of each microbial suspensions. Wells with only bacteria or the yeast were treated as a negative control, and wells with only MHB medium were treated as a blank. The plates were incubated at 37 °C with shaking at 120 rpm for 24 h. After incubation, the media in each well was serially diluted in phosphate buffered solution and then inoculated onto tryptone soya agar (Oxoid) plates for bacteria, or Sabouraud’s dextrose agar for the yeast, and incubated at 37 °C for 18 hrs. Post incubation, the number of CFUs on the agar plates was counted.

[2] = system: Pseudomonas aeruginosa PAO1
Description: as §3, §4

[3] = system: Streptococcus gallolyticus SG04
Description: as §3, §4

[4] = system: Staphylococcus aureus SA113
Description: as §3, §4

[5] = system: Pseudomonas aeruginosa PA235
Description: as §3, §4

horse erythrocytes = assay: In vitro assay for hemolysis, horse blood; conditions: for TI horse blood (ratio HC50 to geometric mean MIC): therapeutic index
Experimental: (§1) Hemolysis caused by the peptoids was measured using 18 to 20 mL of a horse or human blood collected in EDTA-coated tubes which has been centrifuged at 500×g for 5 min. The supernatant was discarded and the pellet containing the cells were resuspended in PBS to a final volume of 20 mL. This step was repeated five times. After the final wash, the pellet was resuspended in PBS at the ratio of 1:10 (1 mL red blood cell: 9 mL PBS) to yield a final red blood cell (RBC) concentration of approximately 5 × 10^8 cells mL^−1. The concentration of RBCs was confirmed using a hemocytometer. The peptoids (stock concentration 2 mM) were diluted sequentially (two-fold dilutions) in PBS to final concentrations of […]. All the dilutions were subsequently mixed with the RBC suspension at the ratio of 1:1. MilliQ water was used as a positive control and PBS was used as a negative control in this assay. All samples were incubated at 37 °C for 3 h. Following incubation, the tubes were centrifuged at 500 x g for five mins, the supernatants were collected, transferred to wells in a 96 well plate and their optical density was measured at 540 nm. The percentage of hemolysis was calculated by dividing the absorbance of the test sample by the absorbance of the positive control, and multiplying by 100. Data are presented as the hemolysis caused by each dilution of peptoid, and as the concentration of peptoid that caused 10 % or 50 % lysis of red blood cells.
(§2) The geometric mean is the nth root of the multiplied numbers, where n is the total number of data values. A similar formula was used to calculate the selectivity ratio, but by using the concentration of peptoid that caused 10 % hemolysis.

[6] = system: Pseudomonas aeruginosa PA219
Description: as §3, §4

[7] = system: Pseudomonas aeruginosa PA216
Description: as §3, §4

[8] = system: Streptococcus pneumoniae SP06
Description: as §3, §4

[9] = system: Pseudomonas aeruginosa PA233
Description: All S. aureus strains used were isolated from cases of microbial keratitis (Table 1) with various susceptibilities to antibiotics. The S. pneumoniae strains used were SP04, SP06 and SP07 [46] and Streptococcus gallolyticus SV06 (all isolated from eyes of contact lens wearers during adverse events); P. aeruginosa PAO1 (which was originally isolated from a wound, and is an invasive strain containing the gene exoS) as well as isolates from microbial keratitis, PA 235 (invasive strain containing exoS), PA216 (a cytotoxic strain containing exoU), PA219 (cytotoxic strain containing exoU), PA 233 (cytotoxic strain containing exoU), with various susceptibilities to antibiotics were also used. C. albicans ATCC 10231, a yeast, isolated from case of a human bronchomycosis, was also evaluated.
The peptoids’ minimum inhibitory and bactericidal concentrations (MIC and MBC) were determined using micro broth dilution methods as previously described with slight modifications, [26, 39, 49, 50], and without using acetic acid and bovine serum albumin [39]. Briefly, bacteria or yeast were suspended in Muller Hinton broth (MHB, Oxoid, Thermo Fisher Scientific, Thebarton, SA, Australia) at 0.1 OD660nm, which was equivalent to 1x10^8 colony forming units (CFU) mL^−1. This suspension was further diluted to achieve 5x10^6 CFU mL^−1. The peptoids were diluted in MHB from 250 to 0.24 μg mL^−1 in 96-well polystyrene microplates (COSTAR, Corning Incorporated, New York, NY, USA). This range was selected to cover the range of MIC values previously reported for ESKAPE pathogens. This was followed by addition of 100 μL of each microbial suspensions. Wells with only bacteria or the yeast were treated as a negative control, and wells with only MHB medium were treated as a blank. The plates were incubated at 37 °C with shaking at 120 rpm for 24 h. After incubation, the media in each well was serially diluted in phosphate buffered solution and then inoculated onto tryptone soya agar (Oxoid) plates for bacteria, or Sabouraud’s dextrose agar for the yeast, and incubated at 37 °C for 18 hrs. Post incubation, the number of CFUs on the agar plates was counted.

[10] = system: Staphylococcus aureus SA114
Description: as §3, §4

[11] = system: viridans group streptococcus SV06
Description: as §3, §4

[12] = system: Staphylococcus aureus SA65
Description: as §3, §4

[13] = system: Candida albicans ATCC 10231; assay: MIC/MBC (fungicidal) micro broth dilution; conditions: ATCC 10231 (yeast), MHB, 24 h 37 °C; for MBC (minimum fungicidal concentration): ≥99.99 % reduction in CFUs
Description: as §3, §4

[14] = system: Staphylococcus aureus SA117
Description: as §3, §4

human erythrocytes = assay: In vitro assay for hemolysis, human blood; conditions: for TI human blood (ratio HC50 to geometric mean MIC): therapeutic index
Experimental: as §1, §2

[15] = system: Streptococcus pneumoniae SP04
Description: as §3, §4

[16] = system: Staphylococcus aureus SA34
Description: as §3, §4

tested bacteria = assay: Geometric mean of MIC of the tested bacteria; conditions: nth root of the multiplied MICs of the tested bacteria
Description: as §2

## C[C@@H](c1ccccc1)N(CC(N)=O)C(=O)CN(C(=O)CN(CCCCN)C(=O)CN(C(=O)CN(C(=O)CN(CCCCN)C(=O)CN(C(=O)CN(C(=O)CN(CCCCN)C(=O)CN(C(=O)CN(C(=O)CNCCCCN)[C@@H](C)c1ccccc1)[C@@H](C)c1ccccc1)[C@@H](C)c1ccccc1)[C@@H](C)c1ccccc1)[C@@H](C)c1ccccc1)[C@@H](C)c1ccccc1)[C@@H](C)c1ccccc1 [TM1] (H-[Nlys][Nspe][Nspe][Nlys][Nspe][Nspe][Nlys][Nspe][Nspe][Nlys][Nspe][Nspe]-NH2)
[1]; SP07, MHB, 24 h 37 °C, ≥90 % reduction in CFUs
  MIC: 15(8.6)/15(8.6) μg mL^−1
[1]; SP07, MHB, 24 h 37 °C, ≥99.99 % reduction in CFUs
  MBC: 15(8.6)/15(8.6) μg mL^−1
[2]; PAO1, MHB, 5x10^6 CFU mL^−1, 24 h 37 °C, ≥90 % reduction in CFUs
  MIC: 7.8 µg/mL (≈ 4.29 µM)
[2]; PAO1, MHB, 24 h 37 °C, ≥99.99 % reduction in CFUs
  MBC: 15 µg/mL (≈ 8.24 µM)
[3]; SG04, MHB, 24 h 37 °C, ≥90 % reduction in CFUs
  MIC: 3.9 µg/mL (≈ 2.14 µM)
[3]; SG04, MHB, 24 h 37 °C, ≥99.99 % reduction in CFUs
  MBC: 7.8 µg/mL (≈ 4.29 µM)
[4]; SA113, MHB, 24 h 37 °C, ≥90 % reduction in CFUs
  MIC: 3.9 µg/mL (≈ 2.14 µM)
[4]; SA113, MHB, 24 h 37 °C, ≥99.99 % reduction in CFUs
  MBC: 7.8 µg/mL (≈ 4.29 µM)
[5]; PA235, MHB, 24 h 37 °C, ≥99.99 % reduction in CFUs
  MBC: 31(17)/31(17) μg mL^−1
Horse erythrocytes; concentration causing 10 % lysis of horse red blood cells, PBS, 3 h 37 °C, OD 540 nm
  Horse HC10: 4 µM
Horse erythrocytes; concentration causing 50 % lysis of horse red blood cells, PBS, 3 h 37 °C, OD 540 nm
  Horse HC50: 45 µM
Horse erythrocytes; selectivity ratio
  SR horse blood (ratio HC10 to geometric mean MIC): 1
Horse erythrocytes
  TI horse blood (ratio HC50 to geometric mean MIC): 11
[6]; PA219, MHB, 24 h 37 °C, ≥90 % reduction in CFUs
  MIC: 15 µg/mL (≈ 8.24 µM)
[6]; PA219, MHB, 24 h 37 °C, ≥99.99 % reduction in CFUs
  MBC: 31 µg/mL (≈ 17 µM)
[7]; PA216, MHB, 24 h 37 °C, ≥90 % reduction in CFUs
  MIC: 15 µg/mL (≈ 8.24 µM)
[7]; PA216, MHB, 24 h 37 °C, ≥99.99 % reduction in CFUs
  MBC: 31 µg/mL (≈ 17 µM)
[8]; SP06, MHB, 24 h 37 °C, ≥90 % reduction in CFUs
  MIC: 3.9 µg/mL (≈ 2.14 µM)
[8]; SP06, MHB, 24 h 37 °C, ≥99.99 % reduction in CFUs
  MBC: 7.8 µg/mL (≈ 4.29 µM)
[9]; PA233, MHB, 24 h 37 °C, ≥90 % reduction in CFUs
  MIC: 15(8.6)/15(8.6) μg mL^−1
[9]; PA233, MHB, 24 h 37 °C, ≥99.99 % reduction in CFUs
  MBC: 15(8.6)/15(8.6) μg mL^−1
[10]; SA114, MHB, 24 h 37 °C, ≥90 % reduction in CFUs
  MIC: 7.8(4.3)/7.8(4.3) μg mL^−1
[10]; SA114, MHB, 24 h 37 °C, ≥99.99 % reduction in CFUs
  MBC: 7.8(4.3)/7.8(4.3) μg mL^−1
[11]; SV06, MHB, 24 h 37 °C, ≥90 % reduction in CFUs
  MIC: 3.9 µg/mL (≈ 2.14 µM)
[11]; SV06, MHB, 24 h 37 °C, ≥99.99 % reduction in CFUs
  MBC: 7.8 µg/mL (≈ 4.29 µM)
[12]; SA65, MHB, 24 h 37 °C, ≥90 % reduction in CFUs
  MIC: 3.9(2.2)/3.9(2.2) μg mL^−1
[12]; SA65, MHB, 24 h 37 °C, ≥99.99 % reduction in CFUs
  MBC: 3.9(2.2)/3.9(2.2) μg mL^−1
[13]
  MBC (minimum fungicidal concentration): 3.9(2.2)/3.9(2.2) μg mL^−1
[14]; SA117, MHB, 24 h 37 °C, ≥90 % reduction in CFUs
  MIC: 7.8 µg/mL (≈ 4.29 µM)
[14]; SA117, MHB, 24 h 37 °C, ≥99.99 % reduction in CFUs
  MBC: 15 µg/mL (≈ 8.24 µM)
Human erythrocytes; concentration causing 10 % lysis of human red blood cells, PBS, 3 h 37 °C, OD 540 nm
  Human HC10: 8 µM
Human erythrocytes; concentration causing 50 % lysis of human red blood cells, PBS, 3 h 37 °C, OD 540 nm
  Human HC50: 49 µM
Human erythrocytes; selectivity ratio
  SR human blood (ratio HC10 to geometric mean MIC): 2
Human erythrocytes
  TI human blood (ratio HC50 to geometric mean MIC): 12
[15]; SP04, MHB, 24 h 37 °C, ≥90 % reduction in CFUs
  MIC: 1.9(1.1)/1.9(1.1) μg mL^−1
[15]; SP04, MHB, 24 h 37 °C, ≥99.99 % reduction in CFUs
  MBC: 1.9(1.1)/1.9(1.1) μg mL^−1
[16]; SA34, MHB, 24 h 37 °C, ≥90 % reduction in CFUs
  MIC: 7.8 µg/mL (≈ 4.29 µM)
[16]; SA34, MHB, 24 h 37 °C, ≥99.99 % reduction in CFUs
  MBC: 15 µg/mL (≈ 8.24 µM)

## C[C@@H](c1ccc(Br)cc1)N(CC(=O)N(CCCCN)CC(=O)N(CC(=O)N(CC(=O)N(CCCCN)CC(N)=O)[C@@H](C)c1ccc(Br)cc1)[C@@H](C)c1ccc(Br)cc1)C(=O)CN(C(=O)CNCCCCN)[C@@H](C)c1ccc(Br)cc1 [TM14] (H-[Nlys][Nspe(4-Br)][Nspe(4-Br)][Nlys][Nspe(4-Br)][Nspe(4-Br)][Nlys]-NH2)
[1]; SP07, 24 h
  MBC: 15(11)/15(11) μg mL^−1
  MIC: 15(11)/15(11) μg mL^−1
[2]; PAO1, 24 h
  MBC: 15 µg/mL (≈ 11 µM)
  MIC: 7.8 µg/mL (≈ 5.73 µM)
[3]; 24 h
  MBC: 15(11)/15(11) μg mL^−1
  MIC: 15(11)/15(11) μg mL^−1
[4]; SA113, 24 h
  MBC: 3.9 µg/mL (≈ 2.86 µM)
  MIC: 1.9 µg/mL (≈ 1.4 µM)
[5]; PA235, 24 h
  MBC: 31 µg/mL (≈ 22.8 µM)
  MIC: 15 µg/mL (≈ 11 µM)
Horse erythrocytes
  SR horse blood (ratio HC10 to geometric mean MIC): 0.8
  TI horse blood (ratio HC50 to geometric mean MIC): 11
Horse erythrocytes; red cells of horse, 3 h
  Horse HC10: 3 µM
  Horse HC50: 45 µM
[6]; PA219, 24 h
  MBC: 15(11)/15(11) μg mL^−1
  MIC: 15(11)/15(11) μg mL^−1
[7]; PA216, 24 h
  MBC: 15 µg/mL (≈ 11 µM)
  MIC: 7.8 µg/mL (≈ 5.73 µM)
[8]; SP06, 24 h
  MBC: 1.9(1.4)/1.9(1.4) μg mL^−1
  MIC: 1.9(1.4)/1.9(1.4) μg mL^−1
[9]; PA233, 24 h
  MBC: 31 µg/mL (≈ 22.8 µM)
  MIC: 15 µg/mL (≈ 11 µM)
[10]; SA114, 24 h
  MBC: 1.9(1.4)/1.9(1.4) μg mL^−1
  MIC: 1.9(1.4)/1.9(1.4) μg mL^−1
Tested bacteria
  Geometric mean of MIC: 4.0 µM and 4 µM
[11]; 24 h
  MBC: 15(11)/15(11) μg mL^−1
  MIC: 15(11)/15(11) μg mL^−1
[12]; SA65, 24 h
  MBC: 1.9(1.4)/1.9(1.4) μg mL^−1
  MIC: 1.9(1.4)/1.9(1.4) μg mL^−1
[13]; ≥90 % reduction in CFUs
  MIC: 3.9(2.8)/3.9(2.8) μg mL^−1
[13]
  MBC (minimum fungicidal concentration): 3.9(2.8)/3.9(2.8) μg mL^−1
[14]; SA117, 24 h
  MBC: 3.9(2.9)/3.9(2.9) μg mL^−1
  MIC: 3.9(2.9)/3.9(2.9) μg mL^−1
Human erythrocytes
  SR human blood (ratio HC10 to geometric mean MIC): 2
  TI human blood (ratio HC50 to geometric mean MIC): 23
Human erythrocytes; red cells of human, 3 h
  Human HC10: 8 µM
  Human HC50: 90 µM
[15]; SP04, 24 h
  MBC: 15(11)/15(15) μg mL^−1
  MIC: 15(11)/15(15) μg mL^−1
[16]; SA34, 24 h
  MBC: 3.9(2.9)/3.9(2.9) μg mL^−1
  MIC: 3.9(2.9)/3.9(2.9) μg mL^−1
